Reference: US9421204B2, “Oligomer modified diaromatic substituted compounds” (priority 2010, dated 2016)
Several values for one entry are separate records, joined by “and”; a condition that tells them apart may be missing. Equal values may be shown once. Read-outs that look alike come from different tables or passages of the source.

Tests used:
[1] = system: NL4-3; test: Anti-HIV cytoprotection assay, wild type NL4-3; type: cell-based, HIV-1; settings: for EC50: HIV-1 strain NL4-3, CEM-SS cells, read-out: EC50
Procedure: (§1) Cells were prepared as described above. Virus Preparation—The wild type NL4-3 and drug resistant A17 viruses were obtained from the NIH AIDS Research and Reference Reagent Program and stock virus pools were produced in CEM-SS cells. Amino acid substitutes of L100I, Y181C and P23L were introduced by site-directed mutagenesis into pN L4-3 and stock virus pools were produced in CEM-SS cells. A pretitered aliquot of virus was removed from the freezer (−80° C.) and allowed to thaw slowly to room temperature in a biological safety cabinet.
(§2) Plate Format—Each plate contains cell control wells (cells only), virus control wells (cells plus virus), drug toxicity wells (cells plus drug only), drug colorimetric control wells (drug only) as well as experimental wells (drug plus cells plus virus). Samples were tested in triplicate with eleven half-log dilutions per compound. Efficacy and Toxicity XTT—Following incubation at 37° C. in a 5% CO2 incubator, the test plates were stained with the tetrazolium dye XTT (2,3-bis(2-methoxy-4-nitro-5-sulfophenyl)-5-[(phenylamino)carbonyl]-2H-tetrazolium hydroxide). XTT-tetrazolium was metabolized by the mitochondrial enzymes of metabolically active cells to a soluble formazan product, allowing rapid quantitative analysis of the inhibition of HIV induced cell killing by anti-HIV test substances. XTT solution was prepared daily as a stock of 1 mg/mL in RPMI1640. Phenazine methosulfate (PMS) solution was prepared at 0.15 mg/mL in PBS and stored in the dark at −20° C. XTTIPMS stock was prepared immediately before use by adding 40 μL of PMS per ml of XTT solution. Fifty microliters of XTT/PMS was added to each well of the plate and the plate was re-incubated for 4 hours at 37° C. Plates were sealed with adhesive plate sealers and shaken gently or inverted several times to mix the soluble formazan product and the plate was read spectrophotometrically at 450/650 nm with a Molecular Devices Vmax plate reader.
(§3) Data Analysis—Raw data was collected from the Softmax Pro 4.6 software and imported into a Excel XLFit4 spreadsheet for analysis by four parameter curve fit calculations. Both antiviral activity and toxicity are calculated.

[2] = system: CEM-SS cells; test: Toxicity XTT in CEM-SS cells (drug resistant strain assay); type: cell-based; settings: read-out: TC50 (the source's name)
Procedure: as §1, with “cabinet. Virus was re-suspended and diluted into tissue culture medium such that the amount of virus added to each well in a volume of 50 μL was the amount determined to yield 85 to 95% cell killing at 6 days post-infection.” for “cabinet.”
as §2, §3

[3] = as above; type: cell-based; settings: human, CEM-SS cells, read-out: TC50 (the source's name)
Procedure: as §1, with “cabinet. Virus was re-suspended and diluted into tissue culture medium such that the amount of virus added to each well in a volume of 50 μL was the amount determined to yield 85 to 95% cell killing at 6 days post-infection.” for “cabinet.”
as §2, §3

[4] = system: NL4-3P236L; test: Anti-HIV cytoprotection assay, drug resistant NL4-3 P236L; type: cell-based; settings: HIV-1 strain NL4-3P236L; for EC50: CEM-SS cells
Procedure: as §1, with “cabinet. Virus was re-suspended and diluted into tissue culture medium such that the amount of virus added to each well in a volume of 50 μL was the amount determined to yield 85 to 95% cell killing at 6 days post-infection.” for “cabinet.”
as §2, §3

[5] = system: NL4-3Y181C; test: Anti-HIV cytoprotection assay, drug resistant NL4-3 Y181C; type: cell-based; settings: HIV-1 strain NL4-3Y181C; for EC50: CEM-SS cells
Procedure: as §1, with “cabinet. Virus was re-suspended and diluted into tissue culture medium such that the amount of virus added to each well in a volume of 50 μL was the amount determined to yield 85 to 95% cell killing at 6 days post-infection.” for “cabinet.”
as §2, §3

[6] = system: A17K103N/Y181C; test: Anti-HIV cytoprotection assay, drug resistant A17; type: cell-based; settings: HIV-1 strain A17K103N/Y181C, CEM-SS cells
Procedure: as §1, §2, §3

[7] = Toxicity XTT in CEM-SS cells (cytoprotection assay); type: cell-based; settings: human, CEM-SS cells, XTT; read-out: CEM-SS TC50
Procedure: (§4) Cell Preparation—CEM-SS cells were passaged in T-75 flasks prior to use in the antiviral assay. On the day preceding the assay, the cells were split 1:2 to assure they were in an exponential growth phase at the time of infection. Total cell and viability quantification was performed using a hemocytometer and Trypan Blue dye exclusion. Cell viability was greater than 95% for the cells to be utilized in the assay. The cells were resuspended at 5×10^4 cells per ml in tissue culture medium and added to the drug containing microtiter plates in a volume of 50 μL.
(§5) Plate Format—Each plate contains cell control wells (cells only), virus control wells (cells plus virus), drug toxicity wells (cells plus drug only), drug colorimetric control wells (drug only) as well as experimental wells (drug plus cells plus virus). Samples were tested in triplicate with eleven half-log dilutions per compound.
as §2, with “Efficacy and” for “Plate Format—Each plate contains cell control wells (cells only), virus control wells (cells plus virus), drug toxicity wells (cells plus drug only), drug colorimetric control wells (drug only) as well as experimental wells (drug plus cells plus virus). Samples were tested in triplicate with eleven half-log dilutions per compound. Efficacy and”, “hydroxide). XTT-tetrazolium is metabolized by” for “hydroxide). XTT-tetrazolium was metabolized by”, “−20° C. XTT/PMS stock was” for “−20° C. XTTIPMS stock was”, “the soluble fosmazan product and” for “the soluble formazan product and”
as §3

[8] = system: NL4-3L100I; test: Anti-HIV cytoprotection assay, drug resistant NL4-3 L100I; type: cell-based; settings: HIV-1 strain NL4-3L100I, CEM-SS cells
Procedure: as §1, with “cabinet. Virus was re-suspended and diluted into tissue culture medium such that the amount of virus added to each well in a volume of 50 μL was the amount determined to yield 85 to 95% cell killing at 6 days post-infection.” for “cabinet.”
as §2, §3

[9] = system: HIV-1RF; test: Anti-HIV-1 cytoprotection assay in CEM-SS cells; type: cell-based
Procedure: as §4, with “Cell viability was greater than 95% for the cells to be utilized in the assay.” left out
Virus Preparation—The virus used for the assay was the lymphocyte-tropic virus strain HIV-IRF. The virus was obtained from the NIH AIDS Research and Reference Reagent Program and stock virus pools were produced in CEM-SS cells. A pretitred aliquot of virus was removed from the freezer (−80° C.) and allowed to thaw slowly to room temperature in a biological safety cabinet.
as §5
as §2, with “Efficacy and” for “Plate Format—Each plate contains cell control wells (cells only), virus control wells (cells plus virus), drug toxicity wells (cells plus drug only), drug colorimetric control wells (drug only) as well as experimental wells (drug plus cells plus virus). Samples were tested in triplicate with eleven half-log dilutions per compound. Efficacy and”, “hydroxide). XTT-tetrazolium is metabolized by” for “hydroxide). XTT-tetrazolium was metabolized by”, “−20° C. XTT/PMS stock was” for “−20° C. XTTIPMS stock was”, “the soluble fosmazan product and” for “the soluble formazan product and”
Anti-HIV-1 Cytopathic Effects Inhibition Assay Evaluations: Eight compounds were evaluated against the RF strain of HIV-1 in CEM-SS cells using a 12 concentration dose response curve.
as §3

[10] = run with HIV-1 strain A17K103N/Y181C
[11] = run with HIV-1 strain NL4-3L100I
[12] = run with HIV-1 strain NL4-3P236L
[13] = run with HIV-1 strain NL4-3Y181C
[14] = Human immunodeficiency virus 1, CEM-SS

| SMILES | CC50 [3, 10] | CC50 ([3]; run with HIV-1 strain NL4-3) | CC50 [3, 11] | CC50 [3, 12] | CC50 [3, 13] | TI [4] | EC50 [4] | EC50 [4, 14] | TI [5] | EC50 [5] | EC50 [5, 14] | EC50 [6, 14] | EC50 [8, 14] | also measured |
| --- | --- | --- | --- | --- | --- | --- | --- | --- | --- | --- | --- | --- | --- | --- |
| CC(C)Nc1cccnc1N1CCN(C(=O)c2cc3cc(NS(C)(=O)=O)ccc3[nH]2)CC1 [Delavirdine, N-[2-({4-[3-(propan-2-ylamino)pyridin-2-yl]piperazin-1-yl}carbonyl)-1H-indol-5-yl]methanesulfonamide, reference compound] | > 500 nM | > 500 nM | > 500 nM | > 500 nM | > 500 nM | >2.0 | 500 nM | > 500 nM | >1.7 | 580 nM | > 500 nM | > 500 nM | – | TI ([1]; HIV-1 strain NL4-3): >100.0; EC50 [1]: 10 nM; EC50 ([1]; Human immunodeficiency virus 1, NL43, CEM-SS): 5 nM; CC50 [2, 10]: > 1000 nM; CC50 ([2]; run with HIV-1 strain NL4-3): > 1000 nM; CC50 [2, 11]: > 1000 nM; CC50 [2, 12]: > 1000 nM; CC50 [2, 13]: > 1000 nM; EC50 [6]: > 1000 nM |
| Cc1cn([C@H]2C[C@H](N=[N+]=[N-])[C@@H](CO)O2)c(=O)[nH]c1=O [AZT, reference compound] | > 500 nM | – | – | – | – | >71.4 and >50.0 | – | – | – | 1 nM | 2 nM | 3 nM | 3 nM | CC50 [7]: > 1000 nM; EC50 [8]: 6 nM; EC50 ([9]; CEM-SS cells, XTT, read-out: CEM-SS/HIV-1RF EC50): 10 nM; EC50 ([9]; Human immunodeficiency virus 1, CEM-SS, CEM-SS cells, XTT, read-out: CEM-SS/HIV-1RF EC50): 6 nM; EC50 ([9]; Human immunodeficiency virus 1, CEM-SS, RF strain of HIV-1 in CEM-SS cells, control compound, read-out: EC50): 6 nM |
| Cc1ccnc2c1NC(=O)c1cccnc1N2C1CC1 [Nevirapine, reference compound] | > 10000 nM | > 10000 nM | > 10000 nM | > 10000 nM | > 10000 nM | >33.3 and >35.7 | 280 nM | 300 nM | >1.2 | 8590 nM | > 10000 nM | > 10000 nM | > 10000 nM | – |
